Like-named read-outs stand apart in the source and are kept apart here.
Legend:
[1] = system: α1-adrenoceptor (mesenteric artery); experiment: isolated organ: postsynaptic α1-adrenoceptor antagonism on mesenteric artery; design: species or system rat; details: agonist phenylephrine; 37° C; 30-minute incubation with antagonist
Procedure: (§1) In addition, investigations were performed on blood vessel and human hyperplasic prostate tissue preparations. In these experiments, a mesenteric artery was used as a model of resistance vessels which affect the blood pressure. We measured the extent of inhibition of the compounds of the invention and that of the reference drugs, respectively, on the contraction-inducing action of the α1 -agonist (phenylephrine).The α1 -adrenoceptor antagonism was then characterized by pA2 values.
(§2) α1 -Adrenoceptor antagonistic effect in isolated organ experiments
A) Investigation of postsynaptic α1 -adrenoceptors on the rate mesenteric artery
This test was performed according to the method of Angus et al. [J. Physiol.

[2] = system: phenylephrine-induced intraurethral hypertension; experiment: phenylephrine-induced intraurethral hypertension in anaesthetized cats; format: in vivo, cat; details: for ED50: Felis catus, phenylephrine 15 μg/kg/min intravenous, read-out: ED50 urethra (dose decreasing by 50% the hypertension induced by phenylephrine); for ED50 / D/U: ED50 (diastolic pressure)/ED50 (urethra): iv., anaesthetized cat; for D/U: ED50 (diastolic pressure)/ED50 (urethra): urogenital selectivity; for urogenital selectivity (in words): in vivo
Text: (§3) In an in vivo animal model, in anaesthetized cat, intraurethral hypertension can be induced by α1 -adrenoceptor agonists [e.g. phenylephrine, which is chemically (-)-1-(3-hydroxyphenyl)-2-(methylamino)ethanol]. This hypertension-inducing effect can be antagonized by α1 -adrenoceptor antagonists. The antihypertensive effect is expressed by reduction of the diastolic pressure. Results of this experiment are summarized in Table 1 (the experiment is described in detail in the Pharmacological part).
^a Dose decreasing by 50% the hypertension induced by a 15 μg/kg/min
(§4) Effect on the intraurethral and diastolic blood pressure on anaesthetized cats
(§5) This investigation was performed according to the method of Lefevre et al. [Br. J. Pharmacol. 109, 1282 (1993)]. The essence of the method can be summarized as follows.
(§6) Cannules were introduced into the femoral artery and vein of pentobarbitone-anaesthetized, artificially ventilated cats of both sexes weighing 2.5 to 3.5 kg for administration of the compounds and measurement of blood pressure. The bladder was exposed by lower median laporotomy and a catheter was introduced into the urethra through the trigonum. The arterial and intraurethral pressures were registered on a Hellige polygraph by using a pressure transducer.
(§7) For excluding autonomic effects mediated not through α-adrenoceptors,mecamylamine, atropine and propranolol were administered intravenously in doses of 0.5, 0.75 and 0.5 mg/kg, respectively.
(§8) An increase in intraurethral and blood pressure was induced by phenylephrine infusion of 15 μg/kg/min; the change over the baseline pressure was considered to be 100%. The test substances were administered intravenously in 1-1000 μg/kg cumulative bolus doses. An interval of at least 5 minutes was allowed after each dose. The dose of α-antagonist inhibiting by 50% the phenylephrine-induced increase in urethral pressure ([…] uretha) as well as the dose […] by 50% the phenylephrine-induced diastolic total pressure elevation (ED50 diastolic value) were determined.

[3] = molecular target: T1, α1-adrenoceptor (human hyperplasic prostate tissue) (Homo sapiens, UniProt P35348); experiment: isolated organ: postsynaptic α1-adrenoceptor antagonism on human hyperplasic prostate tissue; details: agonist phenylephrine; 37° C; 30 minutes incubation with antagonist; read-out: pA2 human hyperplasic prostate tissue (converted)
T1 construct: Strips prepared from human hyperplasic prostate tissue; from tissue; host or cells: human hyperplastic prostate strips
T1 sequence (P35348 1-466): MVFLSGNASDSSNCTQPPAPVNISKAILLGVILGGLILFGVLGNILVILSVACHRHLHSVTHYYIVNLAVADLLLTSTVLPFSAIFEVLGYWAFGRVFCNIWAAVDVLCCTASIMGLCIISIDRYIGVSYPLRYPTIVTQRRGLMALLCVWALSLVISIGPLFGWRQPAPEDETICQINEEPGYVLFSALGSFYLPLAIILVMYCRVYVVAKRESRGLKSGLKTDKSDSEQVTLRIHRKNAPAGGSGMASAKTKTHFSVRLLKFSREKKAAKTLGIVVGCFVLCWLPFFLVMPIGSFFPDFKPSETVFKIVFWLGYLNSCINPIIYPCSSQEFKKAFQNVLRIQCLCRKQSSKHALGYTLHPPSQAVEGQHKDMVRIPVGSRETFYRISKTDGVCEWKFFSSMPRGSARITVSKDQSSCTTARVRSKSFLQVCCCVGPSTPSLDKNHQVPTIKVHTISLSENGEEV
Procedure: as §1, §2
(§9) B) Investigation of postsynaptic α1 -adrenoceptors on human prostate preparation
(§10) This test was performed according to the method of Scheu-Eei Yu et al. [Eur. J. Pharmacol. 252, 29 (1994)].
(§11) Strips prepared from human hyperplasic prostate tissue were suspended in a Krebs solution bubbled with carbogen at 37° C. A pre-tension of 1 g and an equilibration period of 1 hour were used. A dose-effect curve was established for phenylephrine. Then, after washing out and incubation with the antagonist for 30 minutes, the dose/effect curve was again determined. For characterizing the antagonistic effects, pA2 values were calculated.

[4] = system: α1-adrenoceptor (human hyperplasic prostate tissue); experiment: as above; details: for Selectivity (prostate/artery): antilogarithmic ratio of pA2 value, human prostate vs rat mesenteric artery; for α1-adrenoceptor antagonistic effect (in words): Table 2 data, prostate tissue and resistance artery
Procedure: as §1, §2, §9, §10, §11

[5] = system: diastolic pressure; experiment: phenylephrine-induced diastolic blood pressure increase in anaesthetized cats; format: in vivo, cat; details: for ED50: Felis catus, iv., anaesthetized cat, phenylephrine 15 μg/kg/min, read-out: ED50 diastolic pressure (dose decreasing by 50% the diastolic total pressure increased by phenylephrine); for influence on other cardiovascular parameters (in words): doses that diminish the intraurethral pressure
Text: as §3
^b Dose decreasing by 50% the diastolic total pressure increased by
as §4, §5, §6, §7, §8

[6] = toxicity (statement, no test described)
[7] = molecular target: T2, postsynaptic α2-adrenoceptor (vena saphena) (Canis lupus familiaris, UniProt A0A8I3Q7S8); experiment: postsynaptic α2-adrenoceptor antagonism in dog vena saphena preparation
T2 construct: Postsynaptic α2 -adrenoceptor antagonism in dog vena saphena preparation; from tissue; host or cells: dog saphenous vein
T2 sequence (A0A8I3Q7S8 1-427): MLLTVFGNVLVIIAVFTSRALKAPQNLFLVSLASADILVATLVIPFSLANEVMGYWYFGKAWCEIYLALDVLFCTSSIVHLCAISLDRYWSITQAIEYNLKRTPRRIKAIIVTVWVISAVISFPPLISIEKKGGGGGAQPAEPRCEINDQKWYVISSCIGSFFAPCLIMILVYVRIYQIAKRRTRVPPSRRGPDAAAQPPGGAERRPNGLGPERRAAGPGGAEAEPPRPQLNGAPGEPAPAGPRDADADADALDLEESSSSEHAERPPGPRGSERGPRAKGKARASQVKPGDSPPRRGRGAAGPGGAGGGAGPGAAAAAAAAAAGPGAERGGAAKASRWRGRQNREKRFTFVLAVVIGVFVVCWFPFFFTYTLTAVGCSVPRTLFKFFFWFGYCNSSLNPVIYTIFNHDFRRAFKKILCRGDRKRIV
Procedure: (§12) The antagonism was characterized by the pA2 values.
(§13) B) Postsynaptic α2 -adrenoceptor antagonism in dog vena saphena preparation
(§14) This investigation was carried out by the method of Fowler et al. [J. Pharmcol.
(§15) β-Adrenoceptors were inactivated with propranolol. […] After 30 minutes, the organs were incubated with the […] for 30 minutes. Also here, the antagonism was characterized by the pA2 values.

[8] = system: postsynaptic α2-adrenoceptor (vena saphena); experiment: as above; details: for selectivity toward the postsynaptic α2-receptors (in words) / α2-adrenoceptor antagonistic activity (in words): Table 3 data; for Selectivity postsynaptic/presynaptic: antilogarithmic ratio of pA2 values, dog vena saphena vs rat vas deferens
Procedure: as §12, §13, §14, §15

[9] = molecular target: T3, presynaptic α2-adrenoceptor (vas deferens) (Rattus norvegicus, UniProt P22909); experiment: presynaptic α2-adrenoceptor antagonism on rat vas deferens preparation; details: agonist xylazine, 35° C, electrically stimulated, read-out: pA2 presynaptic (converted)
T3 construct: Vas deferents were isolated from SPRD rats; from tissue; host or cells: vas deferens of SPRD rats, electrically stimulated
T3 sequence (P22909 1-465): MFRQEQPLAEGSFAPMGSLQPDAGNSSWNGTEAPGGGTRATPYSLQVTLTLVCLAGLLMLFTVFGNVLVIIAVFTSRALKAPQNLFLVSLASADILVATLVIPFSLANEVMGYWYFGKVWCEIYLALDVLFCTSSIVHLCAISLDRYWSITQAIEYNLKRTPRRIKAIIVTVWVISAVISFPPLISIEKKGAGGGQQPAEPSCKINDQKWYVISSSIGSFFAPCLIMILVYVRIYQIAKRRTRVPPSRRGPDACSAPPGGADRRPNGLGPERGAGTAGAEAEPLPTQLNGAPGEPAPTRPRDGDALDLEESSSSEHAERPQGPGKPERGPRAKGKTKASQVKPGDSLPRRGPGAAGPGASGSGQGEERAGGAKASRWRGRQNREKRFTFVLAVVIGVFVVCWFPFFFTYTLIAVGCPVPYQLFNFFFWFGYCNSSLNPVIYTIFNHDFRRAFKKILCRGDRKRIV
Procedure: as §12
Pre- and postsynaptic α1 -adrenoceptor antagonistic effects
A) Presynaptic α2 -adrenoceptor antagonism on the rat vas deference preparation
Briefly, the experiment was performed as follows.
Vas deferents were isolated from SPRD rats according to Vizi et al. [N. S. Arch. Pharmcol.
A dose/effect curve was determined for xylazine. Then, after washing out, the organ was incubated with the antagonist. The dose/effect curve was taken again with xylazine in the presence of the antagonist. The antagonism was characterized by the pA2 value determined according to the method of Arunlakshana and Schield [Br. J. Pharmcol.

[10] = background; cited from earlier work
[11] = dog vena saphena, agonist UK 14304, 30 minutes incubation, read-out: pA2 postsynaptic (converted)

| SMILES | pA2 rat mesenteric artery [1] | ED50 [2] | D/U: ED50 (diastolic pressure)/ED50 (urethra) [2] | Kb [3] | Selectivity (prostate/artery) [4] | ED50 [5] | urogenital selectivity (in words) [2] | α1-adrenoceptor antagonistic effect (in words) [4] | toxicity (in words) [6] | Kb [7, 11] | selectivity toward the postsynaptic α2-receptors (in words) [8] | α2-adrenoceptor antagonistic activity (in words) [8] | Selectivity postsynaptic/presynaptic [8] | influence on other cardiovascular parameters (in words) [5] | Kb [9] | Kb [7] | urogenital selectivity of available drugs (in words) [10] |
| --- | --- | --- | --- | --- | --- | --- | --- | --- | --- | --- | --- | --- | --- | --- | --- | --- | --- |
| COc1cc2nc(N(C)CCCNC(=O)C3CCCO3)nc(N)c2cc1OC (stereo not shown) [Alfuzosin] | 8.60 |  |  |  |  |  |  |  |  |  |  |  |  |  |  |  |  |
| O=c1cccnn1CCCNCC1COc2ccccc2O1 (racemic) [(3), 2-[3-([1,4]benzodioxan-2-ylmethylamino)-1-propyl]-3(2H)-pyridazinone, reference compound] | 7.16 | 0.0284 mg/kg | 4.6 | 30.9 nM | 2.24 | 0.13 mg/kg |  |  |  |  |  |  |  |  |  |  |  |
| COc1cc2nc(N3CCN(C(=O)C4CCCO4)CC3)nc(N)c2cc1OC (stereo not shown) [Terazosin] | 8.45 |  |  |  |  |  |  |  |  |  |  |  |  |  |  |  |  |
| O=c1cccnn1CCCNC[C@H]1COc2ccccc2O1 [(2)] | 7.68 | 0.0034 mg/kg | 26.5 | 5.89 nM | 3.55 | 0.09 mg/kg | significant urogenital selectivity | strong α1 -adrenoceptor antagonistic effect | low toxicity | 7.24 nM | excellent selectivity toward the postsynaptic α2 -receptors | strong α2 -adrenoceptor antagonistic activity | 21.4 | very weak influence only on other cardiovascular parameters | 155 nM |  |  |
| COC(=O)[C@@H]1[C@H]2C[C@H]3c4[nH]c5ccccc5c4CCN3C[C@@H]2CC[C@@H]1O [Yohimbine, reference compound] |  |  |  |  |  |  |  |  |  |  |  |  |  |  |  | 8.91 nM |  |
| O=c1cccnn1CCCNC[C@@H]1COc2ccccc2O1 [(1), R-2-[3-([1,4]-benzodioxan-2-ylmethylamino)-1-propyl]-3(2H)-pyridazinone] | 6.56 | 0.0139 mg/kg | > 63.9 | 63.1 nM | 4.37 | > 0.888 mg/kg | significant urogenital selectivity | strong α1 -adrenoceptor antagonistic effect | low toxicity | 13.5 nM | excellent selectivity toward the postsynaptic α2 -receptors | strong α2 -adrenoceptor antagonistic activity | 115.0 | very weak influence only on other cardiovascular parameters | 1550 nM |  |  |
| COc1cc2nc(N3CCN(C(=O)c4ccco4)CC3)nc(N)c2cc1OC [Prazosin, reference compound] |  | 0.0187 mg/kg | 1.3 |  |  | 0.025 mg/kg |  |  |  |  |  |  |  |  |  |  | low or moderate |
